Experiment [1] concerns the target T1, Adrenergic receptor alpha-1 (Rattus norvegicus, UniProt P15823+P23944+P43140).
T1 sequence (P15823 whole entry): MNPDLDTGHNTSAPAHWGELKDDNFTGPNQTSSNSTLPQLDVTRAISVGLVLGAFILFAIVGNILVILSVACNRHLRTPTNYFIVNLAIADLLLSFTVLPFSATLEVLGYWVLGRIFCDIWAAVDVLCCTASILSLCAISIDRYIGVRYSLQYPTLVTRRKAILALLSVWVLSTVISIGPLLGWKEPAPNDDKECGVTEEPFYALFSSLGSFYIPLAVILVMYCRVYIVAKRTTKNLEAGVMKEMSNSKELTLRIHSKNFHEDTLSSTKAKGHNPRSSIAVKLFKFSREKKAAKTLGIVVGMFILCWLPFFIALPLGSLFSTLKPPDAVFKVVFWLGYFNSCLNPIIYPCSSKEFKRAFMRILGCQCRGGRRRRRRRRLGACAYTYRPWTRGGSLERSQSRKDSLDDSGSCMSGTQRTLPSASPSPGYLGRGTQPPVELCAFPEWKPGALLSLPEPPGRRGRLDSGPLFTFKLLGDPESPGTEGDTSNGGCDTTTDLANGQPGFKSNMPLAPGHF
T1 sequence (P23944 whole entry): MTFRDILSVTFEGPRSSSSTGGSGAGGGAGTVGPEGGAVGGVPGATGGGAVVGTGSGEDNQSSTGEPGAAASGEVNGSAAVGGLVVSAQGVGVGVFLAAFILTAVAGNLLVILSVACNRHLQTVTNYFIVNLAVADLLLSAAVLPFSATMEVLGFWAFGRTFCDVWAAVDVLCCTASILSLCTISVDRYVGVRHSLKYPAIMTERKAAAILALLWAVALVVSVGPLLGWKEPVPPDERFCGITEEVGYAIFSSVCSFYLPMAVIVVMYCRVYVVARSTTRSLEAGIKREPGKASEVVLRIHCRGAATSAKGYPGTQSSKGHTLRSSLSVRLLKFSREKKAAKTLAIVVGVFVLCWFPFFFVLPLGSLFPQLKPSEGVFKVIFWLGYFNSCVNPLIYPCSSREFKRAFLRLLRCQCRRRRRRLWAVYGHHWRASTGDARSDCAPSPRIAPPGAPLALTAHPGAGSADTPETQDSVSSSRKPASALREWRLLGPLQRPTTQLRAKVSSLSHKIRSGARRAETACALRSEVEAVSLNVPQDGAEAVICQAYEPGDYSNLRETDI
T1 sequence (P43140 whole entry): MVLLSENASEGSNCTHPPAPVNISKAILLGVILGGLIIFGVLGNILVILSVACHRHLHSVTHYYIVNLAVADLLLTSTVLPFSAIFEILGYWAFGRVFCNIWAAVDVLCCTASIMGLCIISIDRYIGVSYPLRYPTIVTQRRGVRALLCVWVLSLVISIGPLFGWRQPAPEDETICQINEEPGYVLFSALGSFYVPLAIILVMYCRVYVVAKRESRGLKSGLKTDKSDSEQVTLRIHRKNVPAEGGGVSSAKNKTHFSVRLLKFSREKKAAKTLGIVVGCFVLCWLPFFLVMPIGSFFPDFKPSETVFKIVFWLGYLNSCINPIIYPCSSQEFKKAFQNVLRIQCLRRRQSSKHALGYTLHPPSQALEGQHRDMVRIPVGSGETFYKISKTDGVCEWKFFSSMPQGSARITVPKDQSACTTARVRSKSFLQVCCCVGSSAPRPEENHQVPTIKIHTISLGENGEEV
Put plainly: Displacement of [3H]prazosin from alpha1-ARs in CRL:CD(SD)BR-COBS rat brain cortex after 30 mins by liquid scintillation spectrometry.

Experiment [2] deals with T2, 5-hydroxytryptamine receptor 1A (Rattus norvegicus, UniProt P19327).
T2 sequence (P19327 whole entry): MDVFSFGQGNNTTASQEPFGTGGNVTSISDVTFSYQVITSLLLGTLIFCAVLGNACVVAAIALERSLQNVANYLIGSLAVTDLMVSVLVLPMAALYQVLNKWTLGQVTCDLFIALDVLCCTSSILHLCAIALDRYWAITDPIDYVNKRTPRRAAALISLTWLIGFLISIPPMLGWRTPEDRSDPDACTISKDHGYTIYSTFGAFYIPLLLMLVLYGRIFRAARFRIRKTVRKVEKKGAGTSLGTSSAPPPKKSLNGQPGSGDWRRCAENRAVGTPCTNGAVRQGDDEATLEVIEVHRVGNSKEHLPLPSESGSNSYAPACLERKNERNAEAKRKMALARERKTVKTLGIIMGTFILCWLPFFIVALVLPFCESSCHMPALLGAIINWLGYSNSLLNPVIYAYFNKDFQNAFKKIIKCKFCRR
Put plainly: Displacement of [3H]-8-OH-DPAT from 5HT1A in CRL:CD(SD)BR-COBS rat brain hippocampus after 30 mins by liquid scintillation spectrometry. The experiment is classed as tissue-based.

For a further experiment, the species on record is Rattus norvegicus. Put plainly: Ratio of Ki for CRL:CD(SD)BR-COBS rat brain hippocampus 5HT1A to Ki for CRL:CD(SD)BR-COBS rat brain cortex alpha1-AR. The class given is tissue-based.

As a reminder, the Ki is a dissociation constant, usually derived from enzyme kinetics or from competition with a known ligand.

SMILES strings stand for the structures.

With `COc1ccccc1N1CCN(CCn2c(=O)[nH]c3c(-c4ccc(Cl)cc4)c[nH]c3c2=O)CC1`, the inhibitory constant (Ki) in experiment [1] is 3.36 nM; in experiment [2], 32.6 nM. The Ratio Ki in the experiment filed under Rattus norvegicus stood at 9.7.

Take `COc1ccc(-c2cc3c(=O)n(CCN4CCN(c5ccccc5OC)CC4)c(=O)n(Cc4ccccc4OC)c3[nH]2)cc1`: the inhibitory constant (Ki) is 15.86 nM in experiment [1] and 184 nM in experiment [2]. Also, the Ratio Ki in the experiment filed under Rattus norvegicus turned out to be 11.6.

For `COc1ccccc1N1CCN(CCn2c(=O)c3cc(-c4ccccc4)[nH]c3n(Cc3ccccc3)c2=O)CC1`, the inhibition constant Ki was 24.5 nM in experiment [1] and 198 nM in experiment [2]. The Ratio Ki in the experiment filed under Rattus norvegicus was 8.08.

For `COc1ccccc1N1CCN(CCn2c(=O)[nH]c3cc(-c4ccc(Cl)cc4)[nH]c3c2=O)CC1`, the Ratio Ki in the experiment filed under Rattus norvegicus was greater than 1000.

Consider `COc1ccccc1N1CCN(CCn2c(=O)[nH]c3[nH]c(-c4ccccc4)c(-c4ccccc4)c3c2=O)CC1`, for which the Ki turned out to be 4.82 nM in experiment [1] and 466 nM in experiment [2]. For the same compound, the Ratio Ki in the experiment filed under Rattus norvegicus was 96.7.

Consider `O=c1[nH]c2c(-c3ccc(Cl)cc3)c[nH]c2c(=O)n1CCN1CCN(c2ccccc2Cl)CC1`, for which the inhibition constant (Ki) in experiment [1] was 2.71 nM; in experiment [2] it was greater than 10000 nM. Also, the Ratio Ki in the experiment filed under Rattus norvegicus was greater than 3500.

Regarding `O=c1[nH]c2[nH]c(-c3ccc(OCCOc4ccccc4)cc3)cc2c(=O)n1CCN1CCN(c2ccccc2Cl)CC1`, the Ki is 126 nM in experiment [1] and greater than 10000 nM in experiment [2]. Moreover, the Ratio Ki in the experiment listed under Rattus norvegicus is greater than 79.

Turning to `O=c1[nH]c2cc(-c3ccco3)[nH]c2c(=O)n1CCN1CCN(c2ccccc2Cl)CC1`, the values for the inhibitory constant (Ki) in experiment [1] and in experiment [2] were 14.17 nM and 220 nM, respectively. Moreover, the Ratio Ki in the experiment listed under Rattus norvegicus is 15.5.

Consider `O=c1[nH]c2[nH]c(-c3ccc(OCc4ccccc4)cc3)cc2c(=O)n1CCN1CCN(c2ccccc2Cl)CC1`, for which the inhibitory constant (Ki) in experiment [1] is 70.91 nM; in experiment [2], greater than 10000 nM. Moreover, the Ratio Ki in the experiment listed under Rattus norvegicus was greater than 141.

For `O=c1[nH]c2cc(-c3ccc(Cl)cc3)[nH]c2c(=O)n1CCN1CCN(c2ccccc2Cl)CC1`, the Ratio Ki in the experiment filed under Rattus norvegicus is greater than 800.

As to `O=c1[nH]c2[nH]c(-c3ccc(Cl)cc3)cc2c(=O)n1CCN1CCN(c2ccccc2Cl)CC1`, the results for the Ki in experiment [1] and in experiment [2] were 2.64 nM and 1510 nM, respectively. In addition, in the experiment filed under Rattus norvegicus, the Ratio Ki is greater than 500.

Consider `COc1ccccc1N1CCN(CCn2c(=O)[nH]c3c(-c4ccccc4)c[nH]c3c2=O)CC1`, for which the Ki in experiment [1] turned out to be 2.08 nM; in experiment [2], 13.4 nM. Also, in the experiment listed under Rattus norvegicus, the Ratio Ki was 6.44.

Regarding `CC(C)(C)c1cc2[nH]c(=O)n(CCN3CCN(c4ccccc4Cl)CC3)c(=O)c2[nH]1`, the results for the Ki in experiment [1] and in experiment [2] were 1.39 nM and 65.1 nM, respectively. In addition, the Ratio Ki in the experiment filed under Rattus norvegicus is 46.9.

With `COc1ccccc1N1CCN(CCn2c(=O)[nH]c3cc(-c4ccco4)[nH]c3c2=O)CC1`, the results for the Ki in experiment [1] and in experiment [2] were 3.38 nM and 28.9 nM, respectively. The Ratio Ki in the experiment filed under Rattus norvegicus came out at 8.54.

As to `COc1ccccc1N1CCN(CCn2c(=O)[nH]c3cc(C(C)(C)C)[nH]c3c2=O)CC1`, the inhibition constant Ki in experiment [1] was determined as 1.69 nM; in experiment [2], 46.7 nM. Besides, in the experiment listed under Rattus norvegicus, the Ratio Ki worked out at 27.7.

`O=c1[nH]c2c(-c3ccccc3)c[nH]c2c(=O)n1CCN1CCN(c2ccccc2Cl)CC1`: the values for the inhibitory constant (Ki) in experiment [1] and in experiment [2] were 1.14 nM and 43.1 nM, respectively. Moreover, the Ratio Ki in the experiment filed under Rattus norvegicus was 37.8.

Consider `O=c1[nH]c2[nH]c(-c3ccccc3)c(-c3ccccc3)c2c(=O)n1CCN1CCN(c2ccccc2Cl)CC1`, for which the figures for the inhibition constant Ki in experiment [1] and in experiment [2] were 11.9 nM and 1540 nM, respectively. Moreover, the Ratio Ki in the experiment listed under Rattus norvegicus came out at 129.

In the case of `COc1ccccc1N1CCN(CCn2c(=O)[nH]c3[nH]c(-c4ccc(OCc5ccccc5)cc4)cc3c2=O)CC1`, the inhibition constant Ki is 10.31 nM in experiment [1] and 784 nM in experiment [2]. Also, the Ratio Ki in the experiment filed under Rattus norvegicus was found to be 76.

As to `COc1ccc(-c2cc3c(=O)n(CCN4CCN(c5ccccc5Cl)CC4)c(=O)n(Cc4ccccc4OC)c3[nH]2)cc1`, the inhibition constant (Ki) was determined as 89.2 nM in experiment [1] and 4670 nM in experiment [2]. Further, the Ratio Ki in the experiment listed under Rattus norvegicus stood at 52.3.

For the compound `COc1ccccc1N1CCN(CCn2c(=O)[nH]c3[nH]c(-c4ccc(Oc5ccccc5)cc4)cc3c2=O)CC1`, the results for the inhibitory constant (Ki) in experiment [1] and in experiment [2] were 43.71 nM and 17.1 nM, respectively. The Ratio Ki in the experiment listed under Rattus norvegicus is 0.39.

With `COc1ccccc1N1CCN(CCn2c(=O)[nH]c3[nH]c(-c4ccc(OCCOc5ccccc5)cc4)cc3c2=O)CC1`, the Ki was 53.63 nM in experiment [1] and greater than 10000 nM in experiment [2]. For the same compound, the Ratio Ki in the experiment listed under Rattus norvegicus is greater than 186.

For `O=c1c2cc(-c3ccccc3)[nH]c2n(Cc2ccccc2)c(=O)n1CCN1CCN(c2ccccc2Cl)CC1`, the Ki in experiment [1] was determined as 35.41 nM; in experiment [2], 1020 nM. In addition, the Ratio Ki in the experiment filed under Rattus norvegicus came to 28.8.

Consider `O=c1[nH]c2[nH]c(-c3ccc(Oc4ccccc4)cc3)cc2c(=O)n1CCN1CCN(c2ccccc2Cl)CC1`, for which the inhibition constant (Ki) in experiment [1] turned out to be 125 nM; in experiment [2] it was 4720 nM. In addition, the Ratio Ki in the experiment listed under Rattus norvegicus was determined as 37.8.

On to `Cc1ccc(-c2c[nH]c3c(=O)n(CCN4CCN(c5ccccc5Cl)CC4)c(=O)[nH]c23)cc1`, for which the values for the inhibitory constant (Ki) in experiment [1] and in experiment [2] were 4.96 nM and greater than 10000 nM, respectively. Also, the Ratio Ki in the experiment filed under Rattus norvegicus is greater than 2000.

Regarding `O=c1[nH]c2c(-c3ccccc3Cl)c[nH]c2c(=O)n1CCN1CCN(c2ccccc2Cl)CC1`, the Ki came out at 1.14 nM in experiment [1] and 81.5 nM in experiment [2]. In addition, the Ratio Ki in the experiment filed under Rattus norvegicus came to 71.5.

With `O=c1[nH]c2[nH]c(-c3ccc(-c4ccccc4)cc3)cc2c(=O)n1CCN1CCN(c2ccccc2Cl)CC1`, the inhibition constant Ki was 183 nM in experiment [1] and greater than 10000 nM in experiment [2]. In addition, the Ratio Ki in the experiment listed under Rattus norvegicus was greater than 54.6.

As for `COc1ccccc1N1CCN(CCn2c(=O)[nH]c3[nH]c(-c4ccc(-c5ccccc5)cc4)cc3c2=O)CC1`, the figures for the inhibitory constant (Ki) in experiment [1] and in experiment [2] were 54.3 nM and 3680 nM, respectively. In addition, in the experiment listed under Rattus norvegicus, the Ratio Ki stood at 67.8.

In the case of `COc1ccccc1N1CCN(CCn2c(=O)[nH]c3[nH]c(-c4ccc(Cl)cc4)cc3c2=O)CC1`, the Ki in experiment [1] stood at 4.08 nM; in experiment [2], 401 nM. The Ratio Ki in the experiment filed under Rattus norvegicus was 98.4.

For the origin of these results see ChEMBL document CHEMBL1817545, “Synthesis and molecular modeling of 1H-pyrrolopyrimidine-2,4-dione derivatives as ligands for the α1-adrenoceptors” (Bioorg Med Chem, 2011).
